Experimental data as given in patent US10709711B2 (G1 Therapeutics, Inc., priority 2013, dated 2020).

Key:
[1] = tested on: Daudi (human B-lymphoblastoid cell from Burkitt's Lymphoma patient); assay: Inhibition of cellular proliferation, Daudi cells (CellTiter-Glo); format: cell-based; settings: EC50 measured as illustrated in Example 150 (CellTiter-Glo)
Procedure: (§1) The SupT1 cells were seeded in Costar (Tewksbury, Mass.) 3093 96 well tissue culture treated white walled/clear bottom plates. A nine point dose response dilution series from 10 uM to 1 nM was performed and cell viability was determined after four days as indicated using the CellTiter-Glo® assay (CTG; Promega, Madison, Wis., United States of America) following the manufacturer's recommendations. Plates were read on a BioTek (Winooski, Vt.) Syngergy2 multi-mode plate reader. The Relative Light Units (RLU) were plotted as a result of variable molar concentration and data was analyzed using Graphpad (LaJolla, Calif.) Prism 5 statistical software to determine the IC50 for each compound.
(§2) The compounds listed in Table 1 were tested for the inhibition of cellular proliferation using SupT1 (human T-cell lymphoblastic leukemia) and Daudi (human B-lymphoblastoid cell from Burkitt's Lymphoma patient).

[2] = tested on: SupT1 cells (human T-cell lymphoblastic leukemia); assay: Inhibition of cellular proliferation, SupT1 cells (CellTiter-Glo); format: cell-based; settings: SUP-T1, 96 h, cell viability after four days, nine point dilution series 10 uM to 1 nM
Procedure: as §1, §2

Row | Compound | EC50 [1] [nM] | EC50 [2] [nM]
1 | CC(C)N1CCN(c2ccc(Nc3ncc4cc5n(c4n3)C3(CCCCC3)CNC5=O)nc2)CC1C (stereo not drawn) [PP] | 260 | 81
2 | O=C1NCC2(CCCCC2)n2c1cc1cnc(Nc3ccc(N4CCN(CC5CC5)CC4)cn3)nc12 [HH] | 681 | 79
3 | O=C1NCC2(CCCCC2)n2c1cc1cnc(Nc3ccc(N4CCC(N5CCOCC5)CC4)cn3)nc12 [U] | 363 | 48
4 | CC(C)N1CCN(c2ccc(Nc3ncc4cc5n(c4n3)C3(CCCCC3)CNC5=O)nc2)CC1 [GG] |  | 57
5 | CC(C)N1CCN(c2ccc(Nc3ncc4cc5n(c4n3)C3(CCCCC3)CNC5=O)nc2)C[C@@H]1C [AA] | 233 | 58
6 | C[C@H](O)CN1CCN(c2ccc(Nc3ncc4cc5n(c4n3)C3(CCCC3)CNC5=O)nc2)C[C@H]1C [XX] | 499 | 94
7 | C[C@H](O)CN1CCN(c2ccc(Nc3ncc4cc5n(c4n3)C3(CCCCC3)CNC5=O)nc2)C[C@@H]1C [C] | 373 | 74
8 | CCOCCN1CCN(c2ccc(Nc3ncc4cc5n(c4n3)C3(CCCC3)CNC5=O)nc2)CC1 [MMM] | 294 | 37
9 | CCC(C)CN1[C@H](C)CN(c2ccc(Nc3ncc4cc5n(c4n3)C3(CCCC3)CNC5=O)nc2)C[C@@H]1C (stereo partly drawn) [JJJ] | 448 | 143
10 | C[C@H](O)CN1[C@H](C)CN(c2ccc(Nc3ncc4cc5n(c4n3)C3(CCCCC3)CNC5=O)nc2)C[C@@H]1C [Z] | 359 | 87
11 | CCN(CC)C1CCN(c2ccc(Nc3ncc4cc5n(c4n3)C3(CCCCC3)CNC5=O)nc2)CC1 [CC] | 111 | 17
12 | O=C1NCC2(CCCCC2)n2c1cc1cnc(Nc3ccc(N4CCN(C5CCC5)CC4)cn3)nc12 [F] | 692 | 107
13 | C[C@H]1CN(c2ccc(Nc3ncc4cc5n(c4n3)C3(CCCCC3)CNC5=O)nc2)CCN1C [R] | 299 | 43
14 | C[C@@H]1CN(c2ccc(Nc3ncc4cc5n(c4n3)C3(CCCCC3)CNC5=O)nc2)C[C@H](C)N1 [P] | 140 | 33
15 | CN(C)C1CCN(c2ccc(Nc3ncc4cc5n(c4n3)C3(CCCCC3)CNC5=O)nn2)CC1 [SS] | 967 | 11
16 | CC1(C)CN(c2ccc(Nc3ncc4cc5n(c4n3)C3(CCCCC3)CNC5=O)nc2)CCN1 [I] | 249 | 39
17 | C[C@@H]1CN(c2ccc(Nc3ncc4cc5n(c4n3)C3(CCCCC3)CNC5=O)nc2)C[C@H](C)N1CCC(C)(C)C [M] | 1460 | 184
18 | CN1CCN(c2ccc(Nc3ncc4cc5n(c4n3)C3(CCCCC3)CNC5=O)nc2)CC1(C)C [D] | 297 | 55
19 | CC1CN(c2ccc(Nc3ncc4cc5n(c4n3)C3(CCCC3)CNC5=O)nc2)CCN1CC1CC1 (stereo not drawn) [NNN] | 519 | 160
20 | CC(C)(O)CN1CCN(c2ccc(Nc3ncc4cc5n(c4n3)C3(CCCC3)CNC5=O)nc2)CC1 [EEE] | 475 | 65
21 | CN(C)C1CCN(c2ccc(Nc3ncc4cc5n(c4n3)C3(CCCC3)CNC5=O)nn2)CC1 [TTT] | 3300 | 587
22 | C[C@@H]1CN(c2ccc(Nc3ncc4cc5n(c4n3)C3(CCCC3)CNC5=O)nc2)C[C@H](C)N1 [DDD] | 839 | 161

Row | Compound | EC50 [1] [nM] | EC50 [2] [nM]
23 | CN(C)C1CCN(c2ccc(Nc3ncc4cc5n(c4n3)C3(CCCCC3)CNC5=O)nc2)CC1 [O] | 123 | 44
24 | C[C@H]1CN(c2ccc(Nc3ncc4cc5n(c4n3)C3(CCCCC3)CNC5=O)nc2)CCN1 [KK] | 147 | 112
25 | CCN(CC)C1CCN(c2ccc(Nc3ncc4cc5n(c4n3)C3(CCCC3)CNC5=O)nc2)CC1 [LLL] | 1550 | 241
26 | CCN(CC)C1CCN(C2CCN(c3ccc(Nc4ncc5cc6n(c5n4)C4(CCCCC4)CNC6=O)nc3)CC2)C1 (stereo not drawn) [RR] | 158 | 102
27 | O=C1NCC2(CCCC2)n2c1cc1cnc(Nc3ccc(N4CCNCC4)cn3)nc12 [QQQ] | 485 | 258
28 | CC1(C)CN(c2ccc(Nc3ncc4cc5n(c4n3)C3(CCCCC3)CNC5=O)nc2)CCN1CC1CC1 [H] | 719 | 118
29 | CC(C)C[C@@H]1CNC(=O)c2cc3cnc(Nc4ccc(N5CCN(C)CC5)cn4)nc3n21 [XXX] | 1170 | 270
30 | CCN(CC)C1CCN(c2ccc(Nc3ncc4cc5n(c4n3)C3(CCCC3)CNC5=O)nc2)C1 (stereo not drawn) [UU] | 3160 | 228
31 | CCN(CC)C1CCN(C(=O)c2ccc(Nc3ncc4cc5n(c4n3)C3(CCCCC3)CNC5=O)nc2)C1 (stereo not drawn) [JJ] | 389 | 49
32 | CC(C)N1CCN(c2ccc(Nc3ncc4cc5n(c4n3)C3(CCCC3)CNC5=O)nc2)CC1C (stereo not drawn) [GGG] | 586 | 161
33 | CC(C)N1CCN(c2ccc(Nc3ncc4cc5n(c4n3)C3(CCCCC3)CNC5=O)nc2)C[C@H]1C [L] | 1260 | 153
34 | O=C1NCC2(CCCC2)n2c1cc1cnc(Nc3ccc(C(=O)N4CCN(CC5CC5)CC4)cn3)nc12 [OOO] | 668 | 104
35 | O=C1NCC2(CCCCC2)n2c1cc1cnc(Nc3ccc(C(=O)N4CCN(C5CCC5)CC4)cn3)nc12 [LL] | 501 | 84
36 | CC(C)N1CCN(C(=O)c2ccc(Nc3ncc4cc5n(c4n3)C3(CCCCC3)CNC5=O)nc2)CC1 [II] | 347 | 42
37 | CC1CN(c2ccc(Nc3ncc4cc5n(c4n3)C3(CCCCC3)CNC5=O)nc2)CCN1CCC(C)(C)C (stereo not drawn) [G] | 1530 | 156
38 | C[C@@H]1CN(c2ccc(Nc3ncc4cc5n(c4n3)C3(CCCCC3)CNC5=O)nc2)CCN1C[C@@H](C)O [J] | 362 | 47
39 | CC(C)C[C@@H]1CNC(=O)c2cc3cnc(Nc4ccc(N5CCNCC5)cn4)nc3n21 [WWW] | 1270 | 264
40 | CC(C)N1CCN(c2ccc(Nc3ncc4cc5n(c4n3)C3(CCCC3)CNC5=O)nn2)CC1 [RRR] | 2010 | 278
41 | CC1CN(c2ccc(Nc3ncc4cc5n(c4n3)C3(CCCCC3)CNC5=O)nc2)CC(C)N1CC1CC1 (stereo not drawn) [OO] | 880 | 114
42 | C[C@@H]1CN(c2ccc(Nc3ncc4cc5n(c4n3)C3(CCCCC3)CNC5=O)nc2)CCN1 [V] | 194 | 35
43 | CCN(CC)C1CCN(c2ccc(Nc3ncc4cc5n(c4n3)C3(CCCCC3)CNC5=O)nc2)C1 (stereo not drawn) [QQ] | 851 | 68
44 | C[C@@H](O)CN1CCN(c2ccc(Nc3ncc4cc5n(c4n3)C3(CCCC3)CNC5=O)nc2)C[C@@H]1C [VV] | 683 | 115

Row | Compound | EC50 [1] [nM] | EC50 [2] [nM]
45 | CC(C)C1CN(c2ccc(Nc3ncc4cc5n(c4n3)C3(CCCCC3)CNC5=O)nc2)CCN1 (stereo not drawn) [E] | 140 | 9.3
46 | CC1CCN(C2CCN(c3ccc(Nc4ncc5cc6n(c5n4)C4(CCCCC4)CNC6=O)nc3)CC2)C1 (stereo not drawn) [K] | 167 | 134
47 | CC1(C)CN(c2ccc(Nc3ncc4cc5n(c4n3)C3(CCCCC3)CNC5=O)nc2)CCN1C1CC1 [BB] | 472 | 70
48 | O=C1NCC2(CCCC2)n2c1cc1cnc(Nc3ccc(N4CCC(N5CCCCC5)CC4)cn3)nc12 [HHH] | 984 | 85
49 | CN1CCN(C(=O)c2ccc(Nc3ncc4cc5n(c4n3)C3(CCCC3)CNC5=O)nc2)CC1 [BBB] | 758 | 41
50 | CN(C)C1CCN(c2ccc(Nc3ncc4cc5n(c4n3)C3(CCCC3)CNC5=O)nc2)CC1 [YY] | 356 | 97
51 | O=C1NCC2(CCCC2)n2c1cc1cnc(Nc3ccc(N4CCC(N5CCOCC5)CC4)cn3)nc12 [WW] | 1690 | 77
52 | C[C@@H]1CN(c2ccc(Nc3ncc4cc5n(c4n3)C3(CCCCC3)CNC5=O)nc2)C[C@H](C)N1C[C@@H](C)O [MM] | 681 | 84
53 | O=C1NCC2(CCCCC2)n2c1cc1cnc(Nc3ccc(N4CCNCC4)cn3)nc12 [Q] | 561 | 40
54 | CN1CCN(c2ccc(Nc3ncc4cc5n(c4n3)C3(CCCCC3)CNC5=O)nc2)CC1 [T] | 392 | 113
55 | CCN1[C@H](C)CN(c2ccc(Nc3ncc4cc5n(c4n3)C3(CCCCC3)CNC5=O)nc2)C[C@@H]1C [FF] | 380 | 90
56 | C[C@@H]1CN(c2ccc(Nc3ncc4cc5n(c4n3)C3(CCCCC3)CNC5=O)nc2)C[C@H](C)N1C [DD] | 546 | 105
57 | O=C1NCC2(CCCC2)n2c1cc1cnc(Nc3ccc(N4CCOCC4)nn3)nc12 [SSS] | > 3000 | 305
58 | CC(C)N1CCN(c2ccc(Nc3ncc4cc5n(c4n3)C3(CCCC3)CNC5=O)nc2)CC1 [III] | 775 | 230
59 | O=C1NCC2(CCCCC2)n2c1cc1cnc(Nc3ccc(C(=O)N4CCNCC4)cn3)nc12 [Y] | 548 | 85
60 | C[C@H](O)CN1CCN(c2ccc(Nc3ncc4cc5n(c4n3)C3(CCCCC3)CNC5=O)nc2)CC1 [A] | 281 | 57
61 | CCC(C)CN1CCN(c2ccc(Nc3ncc4cc5n(c4n3)C3(CCCC3)CNC5=O)nc2)CC1 (stereo not drawn) [AAA] | 3340 | 15
62 | CC1CN(c2ccc(Nc3ncc4cc5n(c4n3)C3(CCCC3)CNC5=O)nc2)CC(C)N1CCC(C)(C)C (stereo not drawn) [PPP] |  | 3040
63 | C[C@H]1CN(c2ccc(Nc3ncc4cc5n(c4n3)C3(CCCCC3)CNC5=O)nc2)CCN1CC1CC1 [B] | 385 | 96
64 | CC(C)N1CCN(c2ccc(Nc3ncc4cc5n(c4n3)C3(CCCCC3)CNC5=O)nn2)CC1 [TT] | 589 | 92
